Measurements published in ChEMBL document CHEMBL3046372, “Design, Synthesis and Growth Inhibition Activity of Bis-Epoxyethyl Derivatives of Stallimycin Modified on the Amidino Moiety” (Med Chem Res, 2004).

Key:
K562 [1] = assay: Induction of erythroid differentiation in Homo sapiens (human) K562 cells assessed as benzidine-positive cells at IC50 after 6 days; type: functional
K562 [2] = assay: Induction of erythroid differentiation in Homo sapiens (human) K562 cells assessed as benzidine-positive cells at IC50 after 4 days; type: functional
K562 [3] = assay: Cytotoxicity against Homo sapiens (human) K562 cells after 72 hr; type: functional, cell-based; conditions: K562, 72 h
L1210 [4] = assay: Cytotoxicity against Mus musculus (mouse) L1210 cells after 72 hr; type: functional, cell-based; conditions: L1210, 72 h
L1210 [5] = assay: Ratio of distamycin-A IC50 to compound IC50 for Mus musculus (mouse) L1210 cells; type: functional

## Cn1cc(NC(=O)c2cc(NC(=O)c3cc(N(CC4CO4)CC4CO4)cn3C)cn2C)cc1C(=O)NCC/C(N)=N/C#N (stereo not given)
K562 [1]
  Activity: 65.3%
K562 [2]
  Activity: 46.3%
K562 [3]
  IC50: 1 µM
L1210 [4]
  IC50: 6.3 µM

## Cn1cc(NC(=O)c2cc(NC(=O)c3cc(N(CC4CO4)CC4CO4)cn3C)cn2C)cc1C(=O)NCC/C(N)=N/O (stereo not given)
K562 [1]
  Activity: 13%
K562 [2]
  Activity: 11%
K562 [3]
  IC50: 12 µM
L1210 [4]
  IC50: 18 µM

## Cn1cc(NC(=O)c2cc(NC(=O)c3cc(N(CC4CO4)CC4CO4)cn3C)cn2C)cc1C(=O)NCCC(N)=O (stereo not given)
K562 [1]
  Activity: 16%
K562 [2]
  Activity: 15%
L1210 [5]
  Ratio IC50: 4
K562 [3]
  IC50: 25 µM
L1210 [4]
  IC50: 35 µM

## CNC(=O)CCNC(=O)c1cc(NC(=O)c2cc(NC(=O)c3cc(N(CC4CO4)CC4CO4)cn3C)cn2C)cn1C (stereo not given)
K562 [1]
  Activity: 15%
K562 [2]
  Activity: 12%
L1210 [5]
  Ratio IC50: 4
K562 [3]
  IC50: 25 µM
L1210 [4]
  IC50: 38 µM

## Cn1cc(NC(=O)c2cc(NC(=O)c3cc(N)cn3C)cn2C)cc1C(=O)NCC/C(N)=N/C#N
K562 [3]
  IC50: > 50 µM
L1210 [4]
  IC50: > 50 µM

## Cn1cc(NC(=O)c2cc(NC(=O)c3cc(N)cn3C)cn2C)cc1C(=O)NCC/C(N)=N/O
K562 [3]
  IC50: > 50 µM
L1210 [4]
  IC50: > 50 µM

## Cn1cc(NC(=O)c2cc(NC(=O)c3cc(N)cn3C)cn2C)cc1C(=O)NCCC(N)=O
K562 [3]
  IC50: 45 µM
L1210 [4]
  IC50: > 50 µM

## CNC(=O)CCNC(=O)c1cc(NC(=O)c2cc(NC(=O)c3cc(N)cn3C)cn2C)cn1C
K562 [3]
  IC50: > 50 µM
L1210 [4]
  IC50: > 50 µM

## Cl.Cl.Cn1cc(NC(=O)c2cc(NC(=O)c3cc(NC=O)cn3C)cn2C)cc1C(=O)NCCC(=N)N
K562 [1]
  Activity: 10%
K562 [2]
  Activity: 8%
K562 [3]
  IC50: 10 µM
L1210 [4]
  IC50: 50 µM
